Experiments:
PC12 cells = assay: MTT reduction assay, βA peptide-induced toxicity, PC12 cells; format: cell-based, rat
Method: (§1) The degree of βA insult was measured by 3-[4,5-dimethylthiazol-2-yl]-2,5-diphenyltetrazolium bromide (MTT) reduction assay. […] The detection of cell growth or cell death can be determined by observing the conversion of MTT to the colored product, MTT formazan, the concentration of which can be measured […] at 550 nm.
(§2) Cells were incubated in MTT solution (5 mg/ml) at 37° C. for 2 hours. During this time, cells were observed under a microscope every 15 min. Cells were incubated in Lysing buffer (100 μl) overnight at 37° C. Colorimetric determination of MTT reduction was made at 550 nm.
(§3) PC12 rat pheochromocytoma and IMR32 human neuroblastoma cells were obtained from the American Type Culture Collection (ATCC). HUVEC normal umbilical human vein endothelial cells were obtained from Clonetics (San Diego, Calif.). Cells were routinely cultured on a tissue culture plate (Corning, N.Y., N.Y.). PC12 cells were grown in high glucose Dulbecco's Modified Eagle Medium (DMEM), 10% horse serum, 5% fetal calf serum, and 1% penicillin/streptomycin. IMR32 cells were grown in 90% DMEM and 10% fetal calf serum with 1% penicillin/streptomycin. HUVEC cells were grown in EGM-2 Bullet Kit (Clonetics, San Diego, Calif.).
PC12 cells were cultured routinely on polystyrene-coated Corning tissue culture plates. […] The 96-well plates were coated with rat tail collagen (Boehringer Mannheim) in order to promote uniform PC12 cell attachment and growth.

IMR32 cells = assay: MTT reduction assay, βA peptide-induced toxicity, IMR32 cells; format: cell-based, human
Method: as §1, §2, §3

[1] = Antioxidant assay, scavenging of DPPH free radicals; conditions: for Antioxidant IC50: Table 2, synthesized curcuminoids, DPPH; for Antioxidant activity (DPPH free radical scavenging), in words: optical density change of DPPH radicals at 515 nm
Method: Kim et al., Neurosci Lett 303, 57 (2001) and Barik et al., Free Radic Biol Med 39, 811 (2005).
Using an antioxidant assay, the antioxidant potency of the compounds of the invention was evaluated. 1,1-Diphenyl-2-picrylhydrazyl (DPPH) is known to generate stable free radicals in aqueous and ethanolic solutions. The ability of the compounds of the invention to scavenge these free radicals was measured by observing the optical density change of DPPH radicals at 515 nm. Kim et al., Neurosci Lett 303, 57 (2001) and Barik et al., Free Radic Biol Med 39, 811 (2005).
The samples were prepared in various concentrations (200, 20, 2.0, and 0.2 μg/ml) by serial dilution of a stock solution (5 mg/ml) and were tested by the following procedure. Reaction mixtures containing test compounds (dissolved in DMSO) and 300 μM DPPH ethanolic solution in 96-well microtiter plates were incubated at 37° C. for 30 min. and absorbance was measured at 515 nm. Percent inhibition by sample treatment was determined by comparison with a DMSO-treated […] control group. IC50 values were determined from percent inhibition by sample. IC50 values denote the concentration of the tested compound that was required to scavenge 50% of the DPPH free radicals.

[2] = system: cells treated with βA peptide; assay: Protection of cells from βA peptide insult, statements in words (MTT assay, cells not singled out); format: cell-based; conditions: MTT reduction assay; PC12, IMR32, HUVEC cells where named in the sentence
Method: as §1, §2

HUVEC cells = assay: MTT reduction assay, βA peptide-induced toxicity, HUVEC cells; format: cell-based, human
Method: as §1, §2, §3

[3] = Table 2, synthesized curcuminoids
[4] = Table 3, ginger-derived natural product compounds

Row | Molecule | Protection of cells from βA peptide-induced toxicity, in words [2] | Anti-βA peptide(1-42) ED50 PC12 (PC12 cells; Table 4, ginkgo compounds) | Anti-βA peptide(25-35) ED50 PC12 (PC12 cells; Table 4, ginkgo compounds) | Anti-βA peptide(1-42) ED50 IMR32 (IMR32 cells; Table 4, ginkgo compounds) | Anti-βA peptide(25-35) ED50 IMR32 (IMR32 cells; Table 4, ginkgo compounds) | Anti-βA peptide(1-42) ED50 HUVEC (HUVEC cells; Table 4, ginkgo compounds) | Anti-βA peptide(25-35) ED50 HUVEC (HUVEC cells; Table 4, ginkgo compounds) | also measured
1 | COc1ccc(/C=C/C(=O)CC(=O)CCc2ccc(O)cc2)cc1 [Compound 10] | cytotoxic | – | – | – | – | – | – | Anti-βA peptide(1-42) ED50 PC12 (PC12 cells; [3]): toxic; Anti-βA peptide(25-35) ED50 PC12 (PC12 cells; [3]): toxic; Anti-βA peptide(1-42) ED50 IMR32 (IMR32 cells; [3]): toxic; Anti-βA peptide(25-35) ED50 IMR32 (IMR32 cells; [3]): toxic; Antioxidant IC50 [1]: >200 µg/mL
2 | O=C1O[C@H]([C@@H](O)CO)C(O)=C1O [vitamin C, reference compound] | – | – | – | – | – | – | – | Protection of PC12 cells from βA peptide insults (control study) (PC12 cells; even at 200 μg/ml, βA peptide(25-35) and βA peptide(1-42)): did not protect
3 | C[C@@H]1C(=O)O[C@H]2C[C@@]34[C@H]5C[C@@H](C(C)(C)C)[C@]36[C@@H](OC(=O)[C@@H]6O)O[C@@]4(C(=O)O5)[C@]21O [Ginkgolide A, reference compound] | do not possess biological activity | toxic | toxic | toxic | toxic | toxic | toxic | –
4 | CCCCCCCC/C=C/C(=O)CCc1ccc(O)c(OC)c1 [Compound 13, [9]-shogaol] | effectively protected | – | – | – | – | – | – | Anti-βA peptide(1-42) ED50 PC12 (PC12 cells; [4]): 4.0 µg/mL; Anti-βA peptide(25-35) ED50 PC12 (PC12 cells; [4]): 3.0 µg/mL; Anti-βA peptide(25-35) ED50 IMR32 (IMR32 cells; [4]): 2.0 µg/mL; Anti-βA peptide(1-42) ED50 HUVEC (HUVEC cells; [4]): 8.0 µg/mL; Anti-βA peptide(25-35) ED50 HUVEC (HUVEC cells; [4]): 8.0 µg/mL; Antioxidant activity (DPPH free radical scavenging), in words [1]: None of these compounds exhibited significant antioxidant activity
5 | CCCCC/C=C/C(=O)CCc1ccc(O)c(OC)c1 [Compound 12] | effectively protected | – | – | – | – | – | – | Anti-βA peptide(1-42) ED50 PC12 (PC12 cells; [4]): 10 µg/mL; Anti-βA peptide(25-35) ED50 PC12 (PC12 cells; [4]): 9.0 µg/mL; Anti-βA peptide(25-35) ED50 IMR32 (IMR32 cells; [4]): 8.0 µg/mL; Anti-βA peptide(1-42) ED50 HUVEC (HUVEC cells; [4]): 18 µg/mL; Anti-βA peptide(25-35) ED50 HUVEC (HUVEC cells; [4]): 20 µg/mL; Antioxidant activity (DPPH free radical scavenging), in words [1]: None of these compounds exhibited significant antioxidant activity
6 | CCCCCC/C=C\CCCCCCCc1cccc(O)c1C(=O)O [Compound 15] | protect | 2.0 µg/mL | 3.0 µg/mL | 2.5 µg/mL | 3.5 µg/mL | 1.5 µg/mL | 5.0 µg/mL | Antioxidant activity (DPPH free radical scavenging), in words [1]: do not possess antioxidant properties
7 | CC1C(=O)OC2C(O)C34C5CC(C(C)(C)C)C36C(OC(=O)C6O)OC4(C(=O)O5)C12O (stereo not drawn) [Ginkgolide B, reference compound] | do not possess biological activity | toxic | toxic | toxic | toxic | toxic | toxic | –
8 | O=C(CCc1ccc(O)cc1)CC(=O)CCc1ccc(O)cc1 [Compound 9] | protected | – | – | – | – | – | – | Anti-βA peptide(1-42) ED50 PC12 (PC12 cells; [3]): 9.0 µg/mL; Anti-βA peptide(25-35) ED50 PC12 (PC12 cells; [3]): 10.0 µg/mL; Anti-βA peptide(1-42) ED50 IMR32 (IMR32 cells; [3]): 11.0 µg/mL; Anti-βA peptide(25-35) ED50 IMR32 (IMR32 cells; [3]): 12.0 µg/mL; Antioxidant IC50 [1]: >200 µg/mL
9 | Ginkgolide C [reference compound] | do not possess biological activity | toxic | toxic | toxic | toxic | toxic | toxic | –
10 | βA peptide (25-35): beta-amyloid peptide fragment 25-35 used as the toxic insult (GSNKGAIIGLM; Amyloid-beta protein 42; UniProt P05067 696-706, looked up, fragment) [reference compound] | – | – | – | – | – | – | – | ED50 of βA peptide toxicity to PC12 cells (PC12 cells; peptide alone, collagen-coated 96-well plates): 1.0 µg/mL; ED50 of βA peptide toxicity to IMR32 cells (IMR32 cells; peptide alone): 3.0 µg/mL; ED50 of βA peptide toxicity to HUVEC cells (HUVEC cells; peptide alone): 6.0 µg/mL
11 | O=c1c(O)c(-c2ccc(O)c(O)c2)oc2cc(O)cc(O)c12 [Quercetin, reference compound] | do not possess biological activity | >20 µg/mL | >20 µg/mL | >20 µg/mL | >20 µg/mL | >20 µg/mL | >20 µg/mL | –

From patent US7728043B2, “Methods for treatment of beta-amyloid protein-induced ocular disease” (priority 1999, dated 2010)
